Each compound was assayed against Human Factor D (Homo sapiens (Human), UniProt P00746) (assay: Human Factor D Assay). Settings: Factor D inhibition, assay of Example 10; read-out: IC5 (Stars).
Type: biochemical
How it was run: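 Serum-purified Factor D (80 nM final) preincubated 5 min at room temperature with compound in 50 mM Tris, 1 M NaCl, pH 7.5. Z-L-Lys-SBz and DTNB added at 100 μM each; A405 followed every 30 s for 30 min. IC50 from nonlinear regression of rates versus concentration.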

Sequence of Human Factor D (P00746 26-253): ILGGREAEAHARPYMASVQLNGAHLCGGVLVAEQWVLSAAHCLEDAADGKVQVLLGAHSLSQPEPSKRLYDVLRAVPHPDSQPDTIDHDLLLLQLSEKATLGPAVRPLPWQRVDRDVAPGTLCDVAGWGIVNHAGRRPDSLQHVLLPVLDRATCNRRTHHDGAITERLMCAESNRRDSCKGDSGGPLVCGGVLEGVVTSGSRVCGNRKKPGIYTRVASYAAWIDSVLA

Compound | IC50 [nM]
CC(=O)c1cn(CC(=O)N2[C@H](C(=O)NC/C(F)=C(/C)c3ccccc3)C[C@@]3(C)C[C@@H]23)c2cnc(-c3cnc(C)nc3)cc12 [Compound 560] | < 1000
CC(=O)c1nn(CC(=O)N2C[C@](F)(Cn3ccnn3)C[C@H]2C(=O)Nc2nc(Br)ccc2C)c2ccc(-c3cnc(C)nc3)cc12 [Compound 419] | < 1000
CC(=O)c1nn(CC(=O)N2[C@H](C(=O)Nc3nc(Br)ccc3Cc3nn[nH]n3)C[C@@]3(C)C[C@@H]23)c2cnc(-c3cnc(C)nc3)cc12 [Compound 397, (1R, 3S, 5R)—N-(3-((2H-Tetrazol-5-yl)methyl)-6-bromopyridin-2-yl)-2-(2-(3-acetyl-5-(2-methylpyrimidin-5-yl)-1H-pyrazolo[3,4-c]pyridin-1-yl)acetyl)-5-methyl-2-azabicyclo[3.1.0]hexane-3-carboxamide] | < 1000
CC(=O)c1nn(CC(=O)N2[C@H](C(=O)Nc3nc(Br)c(F)cc3C)C[C@@]3(CN(C)C)C[C@@H]23)c2cnc(-c3cnc(C)nc3)cc12 [Compound 264, (1R,3S,5R)-2-(2-(3-acetyl-5-(2-methylpyrimidin-5-yl)-1H-pyrazolo[3,4-c]pyridin-1-yl)acetyl)-N-(6-bromo-5-fluoro-3-methylpyridin-2-yl)-5-((dimethylamino)methyl)-2-azabicyclo[3.1.0] hexane-3-carboxamide] | < 1000
CC(=O)c1nn(CC(=O)N2C[C@H]3C[C@H]3[C@H]2C(=O)Nc2nc(Br)c(F)cc2C)c2c(C)nc(-c3cnc(C)nc3)cc12 [Compound 393, (1R,2S,5S)-3-(2-(3-acetyl-7-methyl-5-(2-methylpyrimidin-5-yl)-1H-pyrazolo[3,4-c]pyridin-1-yl)acetyl)-N-(6-bromo-5-fluoro-3-methylpyridin-2-yl)-3-azabicyclo[3.1.0]hexane-2-carboxamide] | < 1000
CC(=O)c1nn(CC(=O)N2[C@H](C(=O)Nc3nc(Br)ccc3C)C[C@@]3(Cc4nc(C(C)(C)C)cs4)C[C@@H]23)c2ccc(-c3cnc(C)nc3)cc12 [Compound 338, (1R,3S,5R)-2-{2-[3-Acetyl-5-(2-methylpyrimidin-5-yl)indazol-1-yl]acetyl}-N-(6-bromo-3-methylpyridin-2-yl)-5-[(4-tert-butyl-1,3-thiazol-2-yl)methyl]-2-azabicyclo[3.1.0]hexane-3-carboxamide] | < 1000
CC(=O)c1nn(CC(=O)N2[C@H](C(=O)Nc3cc(CC(N)=O)cc(Br)n3)C[C@@]3(C)C[C@@H]23)c2ccc(-c3cnc(C)nc3)cc12 [Compound 534, (1R,3S,5R)-2-(2-(3-acetyl-5-(2-methylpyrimidin-5-yl)-1H-indazol-1-yl)acetyl)-N-(4-(2-amino-2-oxoethyl)-6-bromopyridin-2-yl)-5-methyl-2-azabicyclo[3.1.0]hexane-3-carboxamide] | < 1000
CC(=O)c1nn(CC(=O)N2[C@H](C(=O)Nc3nc(Br)ccc3C)C[C@@]3(CNC(C)(C)C)C[C@@H]23)c2c(C)cc(-c3cnc(C)nc3)cc12 [Compound 300, (1R,3S,5R)-2-(2-(3-acetyl-7-methyl-5-(2-methylpyrimidin-5-yl)-1H-indazol-1-yl)acetyl)-N-(6-bromo-3-methylpyridin-2-yl)-5-((tert-butylamino)methyl)-2-azabicyclo[3.1.0]hexane-3-carboxamide] | < 1000
CC(=O)c1nn(CC(=O)N2[C@H](C(=O)NCc3ccncn3)C[C@@]3(C)C[C@@H]23)c2c(C)cc(-c3cnc(C)nc3)cc12 [Compound 592, (1R,3S,5R)-2-(2-(3-acetyl-7-methyl-5-(2-methylpyrimidin-5-yl)-1H-indazol-1-yl)acetyl)-5-methyl-N-(pyrimidin-4-ylmethyl)-2-azabicyclo[3.1.0]hexane-3-carboxamide] | 1000 to 10000

Same assay, conditions: Table 6; Factor D 80 nM, substrate Z-L-Lys-SBz; read-out: IC50

Compound | IC50 [nM]
CC(=O)c1nn(CC(=O)N2[C@H](C(=O)Nc3nc(Br)ccc3C)C[C@@]3(C)C[C@@H]23)c2c(C)cc(-c3cnc(C)[n+]([O-])c3)cc12 [Compound 50, 5-(3-Acetyl-1-(2-((1R,3S,5R)-3-(6-bromo-3-methylpyridin-2-ylcarbamoyl)-5-methyl-2-azabicyclo[3.1.0]hexan-2-yl)-2-oxoethyl)-7-methyl-1H-indazol-5-yl)-2-methylpyrimidine 1-oxide] | < 1000
Cc1ncc(-c2cc(C)c3c(c2)c(C(C)O)nn3CC(=O)N2[C@H](C(=O)Nc3nc(Br)ccc3C)C[C@@]3(C)C[C@@H]23)cn1 (stereo partly shown) [Compound 140] | < 1000
CC(=O)c1nn(CC(=O)N2[C@H](C(=O)Nc3nc(Br)ccc3C)C[C@@]3(C)C[C@@H]23)c2cnc(-c3cnc(C)[n+]([O-])c3)cc12 [Compound 200, 5-(3-acetyl-1-(2-((1R,3S,5R)-3-((6-bromo-3-methylpyridin-2-yl)carbamoyl)-5-methyl-2-azabicyclo[3.1.0]hexan-2-yl)-2-oxoethyl)-1H-pyrazolo[3,4-c]pyridin-5-yl)-2-methylpyrimidine 1-oxide] | < 1000
CC(=O)c1nn(CC(=O)N2[C@H](C(=O)Nc3nc(Br)ccc3C)C[C@@]3(C)C[C@@H]23)c2ccc(-c3cnc(CN(C)C)nc3)cc12 [Compound 103, (1R,3S,5R)-2-(2-(3-Acetyl-5-(2-((dimethylamino)methyl)pyrimidin-5-yl)-1H-indazol-1-yl)acetyl)-N-(6-bromo-3-methylpyridin-2-yl)-5-methyl-2-azabicyclo[3.1.0]hexane-3-carboxamide] | < 1000
CC(=O)c1nn(CC(=O)N2[C@H](C(=O)Nc3nc(Br)ccc3C)C[C@@]3(C)C[C@@H]23)c2ccc(-c3cnc(N(C)C)nc3)cc12 [Compound 125, (1R,3S,5R)-2-(2-(3-Acetyl-5-(2-(dimethylamino)pyrimidin-5-yl)-1H-indazol-1-yl)acetyl)-N-(6-bromo-3-methylpyridin-2-yl)-5-methyl-2-azabicyclo[3.1.0]hexane-3-carboxamide] | < 1000
CC(=O)c1nn(CC(=O)N2[C@H](C(=O)Nc3nc(Br)ccc3C)C[C@@]3(C)C[C@@H]23)c2ccc(-c3cnc4cc(C)nn4c3)cc12 [Compound 180, (1R,3S,5R)-2-(2-(3-Acetyl-5-(2-methylpyrazolo[1,5-a]pyrimidin-6-yl)-1H-indazol-1-yl)acetyl)-N-(6-bromo-3-methylpyridin-2-yl)-5-methyl-2-azabicyclo[3.1.0]hexane-3-carboxamide] | < 1000
CC(=O)c1nn(CC(=O)N2[C@H](C(=O)Nc3nc(Br)ccc3C)C[C@@]3(CN(C)C)C[C@@H]23)c2ccc(-c3cnc(C)nc3)c(F)c12 [Compound 155, (1R,3S,5R)-2-(2-(3-Acetyl-4-fluoro-5-(2-methylpyrimidin-5-yl)-1H-indazol-1-yl)acetyl)-N-(6-bromo-3-methylpyridin-2-yl)-5-((dimethylamino)methyl)-2-azabicyclo[3.1.0]hexane-3-carboxamide] | < 1000
CC(=O)c1nn(CC(=O)N2[C@H](C(=O)Nc3nc(Br)ccc3C)C[C@@]3(CNC4CC4)C[C@@H]23)c2ccc(-c3cnc(C)nc3)cc12 [Compound 151, (1R,3S,5R)-2-(2-(3-Acetyl-5-(2-methylpyrimidin-5-yl)-1H-indazol-1-yl)acetyl)-N-(6-bromo-3-methylpyridin-2-yl)-5-((cyclopropylamino)methyl)-2-azabicyclo[3.1.0]hexane-3-carboxamide] | < 1000
CC(=O)c1nn(CC(=O)N2C3CC3(CN3CC4CCCC4C3)C[C@H]2C(=O)Nc2nc(Br)ccc2C)c2ccc(-c3cnc(C)nc3)cc12 (stereo partly drawn) [Compound 11, (3S)-2-(2-(3-Acetyl-5-(2-methylpyrimidin-5-yl)-1H-indazol-1-yl)acetyl)-N-(6-bromo-3-methylpyridin-2-yl)-5-((hexahydrocyclopenta[c]pyrrol-2(1H)-yl)methyl)-2-azabicyclo[3.1.0]hexane-3-carboxamide] | < 1000
COCc1cc(-c2cnc(C)nc2)cc2c(C(C)=O)nn(CC(=O)N3C4CC4(COC)C[C@H]3C(=O)Nc3cccc(Br)n3)c12 (stereo partly drawn) [Compound 32, (3S)-2-(2-(3-Acetyl-7-(methoxymethyl)-5-(2-methylpyrimidin-5-yl)-1H-indazol-1-yl)acetyl)-N-(6-bromopyridin-2-yl)-5-(methoxymethyl)-2-azabicyclo[3.1.0]hexane-3-carboxamide] | < 1000
CC(=O)c1nn(CC(=O)N2[C@H](C(=O)Nc3nc(Br)ccc3C)C[C@@]3(C)C[C@@H]23)c2cnc(-c3cnc(N)nc3)cc12 [Compound 194, (1R,3S,5R)-2-(2-(3-Acetyl-5-(2-aminopyrimidin-5-yl)-1H-pyrazolo[3,4-c]pyridin-1-yl)acetyl)-N-(6-bromo-3-methylpyridin-2-yl)-5-methyl-2-azabicyclo[3.1.0]hexane-3-carboxamide] | < 1000

Same assay, conditions: Table 8; Factor D 80 nM, substrate Z-L-Lys-SBz; read-out: IC50

Compound | IC50 [nM]
COC(=O)CCCCCCCCCCCCCCCCC(=O)N[C@@H](CCC(=O)NCCOCCOCC(=O)NCCOCCOCC(=O)NC[C@@]12C[C@@H](C(=O)Nc3nc(Br)ccc3C)N(C(=O)Cn3nc(C(C)=O)c4cc(-c5cnc(C)nc5)ccc43)[C@@H]1C2)C(=O)OC [Compound 358, (S)-methyl 1-((1R,3S,5R)-2-(2-(3-acetyl-5-(2-methylpyrimidin-5-yl)-1H-indazol-1-yl)acetyl)-3-((6-bromo-3-methylpyridin-2-yl)carbamoyl)-2-azabicyclo[3.1.0]hexan-5-yl)-24-(methoxycarbonyl)-3,12,21,26-tetraoxo-5,8,14,17-tetraoxa-2,11,20,25-tetraazatritetracontan-43-oate] | > 10000
Cc1ncc(-c2ccc3c(c2)c(C(=O)NCC(F)(F)F)nn3CC(=O)N2[C@H](C(=O)Nc3nc(Br)ccc3C)C[C@@]3(C)C[C@@H]23)cn1 [Compound 499, 1-(2-((1R,3S,5R)-3-((6-bromo-3-methylpyridin-2-yl)carbamoyl)-5-methyl-2-azabicyclo[3.1.0]hexan-2-yl)-2-oxoethyl)-5-(2-methylpyrimidin-5-yl)-N-(2,2,2-trifluoroethyl)-1H-indazole-3-carboxamide] | < 1000

Reference: patent US11084800B2 (Achillion Pharmaceuticals, Inc., priority 2017, dated 2021)
